Tested on: MPTP-lesioned marmoset
Assay: L-DOPA-induced dyskinesia in MPTP-treated marmoset model of Parkinson's disease
Assay type: in vivo, common marmosets (Callithrix jacchus)
Settings: for Median total dyskinesia scores compared to animals treated with L-DOPA and vehicle / Animals in which dyskinesia was completely abolished: antagonist 10 mg/kg i.p. with L-DOPA 8 mg/kg p.o.; for Median total dyskinesia scores compared to animals treated with L-DOPA and vehicle: cumulative scores; for Animals in which dyskinesia was completely abolished: n=6
Method: The effect of the selective mu opioid receptor antagonist Cyprodime on dyskinesia was assessed in a 1-methyl-4-phenyl-1,2,3,6-tetrahydropyridine (MPTP)-treated marmoset model of Parkinson's disease.
Six adult common marmosets (Callithrix jacchus) were obtained from a closed colony bred at Manchester University, BSU. This study was conducted in the U.K. in accordance with the requirements of The Animals (Scientific Procedures) Act, 1986. The animals were kept in controlled housing conditions, with constant temperature (25° C.), relative humidity (50%) and 12 h light/dark cycles (08.00-20.00 light on). The animals had free access to food (Masuri primate diet-E, Scientific Dietary Services, UK), fresh fruit supplements and water. Marmosets were rendered parkinsonian by treatment with 1-methyl-4-phenyl-1,2,3,6-tetrahydropyridine (MPTP) hydrochloride (Sigma, 2 mg/kg s.c. for 5 consecutive days). […] The animals were allowed to recover for a period of 14 weeks until behavioural assessment was commenced.
Dyskinesia was established in these animals by twice daily treatment with L-DOPA (10 mg/kg p.o. as Madopar Dispersible®) for 3 weeks.
Opioid antagonists, or vehicle, were administered with L-DOPA to assess the effects of adjunctive treatment on L-DOPA-induced dyskinesia and the anti-parkinsonian efficacy of L-DOPA. All animals received all treatments. Treatments in any one animal were separated by at least three days. Naltrexone (non-selective antagonist) was administered at a dose of 10 mg/kg (i.p), cyprodime (mu selective antagonist) was administered at a dose of 10 mg/kg (i.p.), naltrindole (delta selective antagonist) was administered at a dose of 10 mg/kg (i.p.), nor-binaltorphimine (nor-BNI, kappa selective antagonist) was administered at a dose of 20 mg/kg (i.p.). Drugs or vehicle were administered with L-DOPA treatment (8 mg/kg p.o.). Behaviour was assessed for 3 hours post drug administration.
A battery of behavioural assessments was performed to assess the intensity, range and speed of movements. In addition, postural abnormalities and dyskinesia were assessed. • 1) Parkinsonian disability—non-parametric measures based on the following scales • i) Motor activity (repertoire) score: 0=no movement at all, 1=movement of head or trunk, 2=movement of limbs but no locomotion, on the floor of the cage, 3=on wall of cage/perch, movement of head or trunk, 4=on wall of cage/movement of limbs but no locomotion, 5=walking around/eating on floor of cage, 6=hopping on floor of cage, 7=climbing onto wall of cage or perch, 8=climbing up and down the walls of the cage or along perch, 9=running, jumping, climbing between cage walls/perch/roof, uses limbs through a wide range of motion and activity. • ii) Bradykinesia score: 0=normal speed of movement, 1=moderate slowing of movement, difficulty initiating and maintaining movement 2=akinetic, unable to move (maximum score in 30 minutes=12). • iii) Posture score: 0=normal, upright, holds head up, 1=impaired, crouched, face down. (maximum score in 30 minutes=6). • 2) Dyskinesia • 0=Absent • 1=Mild, fleeting • 2=Moderate, not interfering with normal activity • 3=Marked, at times interfering with normal activity • 4=Severe, continuous, replacing normal activity
Parameters 1 and 2 were assessed every 30 minutes throughout a six hour period by post-hoc analysis of videotape recordings. Assessment was made by an observer blinded to the treatment administered.
Non-parametric measures of mobility, bradykinesia, posture and dyskinesia were cumulated and compared between treatments with a Friedman's test with post hoc Dunn's test where appropriate.

[1] = L-DOPA 8 mg/kg p.o., MPTP-treated marmosets

Compound	Median total dyskinesia scores compared to animals treated with L-DOPA and vehicle (n=6, FIG. 1)	Animals in which dyskinesia was completely abolished [%]	also measured
O=C1CC[C@@]2(O)[C@H]3Cc4ccc(O)c5c4[C@@]2(CCN3CC2CC2)[C@H]1O5 [naltrexone]	reduced	33	–
N[C@@H](Cc1ccc(O)c(O)c1)C(=O)O [L-DOPA]	–	–	Parkinsonian symptoms after L-DOPA treatment [1]: reversed; Time to commencement of dyskinesia after L-DOPA administration [1]: ≤ 5 min
COc1cccc2c1[C@]13CCN(CC4CC4)[C@H](C2)[C@]1(OC)CCC(=O)C3 [cyprodime]	markedly reduced	100	Dyskinesia exhibited by each treated animal (10 mg/kg i.p. with L-DOPA 8 mg/kg p.o., individual animals): minimal or no dyskinesia
Oc1ccc2c3c1O[C@H]1c4[nH]c5ccccc5c4C[C@@]4(O)[C@@H](C2)N(CC2CC2)CC[C@]314 [naltrindole]	reduced	50	–
Oc1ccc2c3c1O[C@H]1c4[nH]c5c(c4C[C@@]4(O)[C@@H](C2)N(CC2CC2)CC[C@]314)C[C@@]1(O)[C@H]2Cc3ccc(O)c4c3[C@@]1(CCN2CC1CC1)[C@H]5O4 [nor-BNI, nor-binaltorphimine]	–	–	Median total dyskinesia scores (effect on L-DOPA-induced dyskinesia) (antagonist 20 mg/kg i.p. with L-DOPA 8 mg/kg p.o., n=6, FIG. 1): no effect
